Measurements: the supplement of paper PMC10627819

Experiments:
S. pneumoniae D39V [1] = test: fitness (endpoint OD595 vs no drug) (fraction); higher = more growth
How it was run: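 Plates with 384 wells were inoculated at OD595 0.01 using 30 µl of TSB, LB Lennox or CY, or 55 µl for S. pneumoniae. Incubation was at 37 °C, with OD595 measured every 30 min for 14 h. Fitness is the stationary-phase transition optical density over the robust mean of no-drug control wells, after first-reading background subtraction; it is capped at 1.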

B. subtilis 168 = test: Bliss interaction score (quartile over a dose matrix) (fitness difference); higher = more antagonism (negative = synergy)
How it was run: (§1)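 Fitness was OD595 at entry into stationary phase divided by the plate's robust no-drug mean and capped at 1; single-drug fitness was inferred from combination data. The Bliss score is observed minus expected (product) fitness, summarised by quartiles over technical, biological and donor/recipient replicates.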

S. aureus DSM 20231 = test: as above
How it was run: as §1

S. aureus Newman = test: as above
How it was run: as §1

S. pneumoniae D39V [2] = test: as above
How it was run: as §1
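For Bliss interaction score (quartile over a dose matrix) in this document: first quartile when negative (synergy) and third quartile when positive (antagonism).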

C[C@@H](O)[C@H]1C(=O)N2C(C(=O)O)=C(SCCNC=N)C[C@H]12 [Imipenem] + CN[C@@H]1[C@H](O)[C@H](NC)[C@H]2O[C@@]3(O)C(=O)C[C@@H](C)O[C@H]3O[C@@H]2[C@H]1O [Spectinomycin]
fitness, S. pneumoniae D39V [1], one replicate
Details	first compound 0.005 µg/mL	first compound 0.01 µg/mL	first compound 0.02 µg/mL
partner 4 µg/mL	0.988	0.983	≥ 1
partner 8 µg/mL	0.914	0.886	0.948

fitness, S. pneumoniae D39V [1]
Details	first compound 0.0065 µg/mL	first compound 0.013 µg/mL	first compound 0.026 µg/mL
partner 4 µg/mL	0.895	0.878	–
partner 8 µg/mL	0.878	0.864	0.813
partner 16 µg/mL	0.788	0.828	0.888

Details	Bliss interaction score
B. subtilis 168	-0.0558
S. aureus DSM 20231	-0.043
S. aureus Newman	-0.0557
S. pneumoniae D39V [2]	0.0606

CC[C@H]1OC(=O)[C@H](C)[C@@H](O[C@H]2C[C@@](C)(OC)[C@@H](O)[C@H](C)O2)[C@H](C)[C@@H](O[C@@H]2O[C@H](C)C[C@H](N(C)C)[C@H]2O)[C@](C)(OC)C[C@@H](C)C(=O)[C@H](C)[C@@H](O)[C@]1(C)O [Clarithromycin] + CN[C@@H]1[C@H](O)[C@H](NC)[C@H]2O[C@@]3(O)C(=O)C[C@@H](C)O[C@H]3O[C@@H]2[C@H]1O [Spectinomycin]
fitness, S. pneumoniae D39V [1], one replicate
Details	first compound 0.007812 µg/mL	first compound 0.01562 µg/mL	first compound 0.03125 µg/mL	first compound 0.0625 µg/mL	first compound 0.125 µg/mL	first compound 0.25 µg/mL
partner 4 µg/mL	0.836	0.755	0.669	0.725	0.326	0.156
partner 8 µg/mL	0.741	0.72	0.658	0.676	0.221	0.114
partner 16 µg/mL	0.644	0.664	0.528	–	–	–

fitness, S. pneumoniae D39V [1]
Details	first compound 0.07 µg/mL	first compound 0.14 µg/mL	first compound 0.28 µg/mL
partner 4 µg/mL	0.138	0.0851	0.0564
partner 8 µg/mL	0.138	0.0752	0.0774
partner 16 µg/mL	0.114	0.0949	0.0947

Details	Bliss interaction score
B. subtilis 168	-0.0725
S. aureus DSM 20231	-0.142
S. aureus Newman	-0.181
S. pneumoniae D39V [2]	-0.0344
